# System: human JAK1
# Test: In vitro JAK kinase assay (HTRF), JAK1
# Type: biochemical
# Settings: ratio of JAK2 IC50 to JAK1 IC50 at 1 mM ATP
# Description: Compounds herein were tested for inhibitory activity of JAK targets according to the following in vitro assay described in Park et al., Analytical Biochemistry 1999, 269, 94-104. The catalytic domains of human JAK1 (a.a. 837-1142), JAK2 (a.a. 828-1132) and JAK3 (a.a. 781-1124) were expressed using baculovirus in insect cells and purified. The catalytic activity of JAK1, JAK2 or JAK3 was assayed by measuring the phosphorylation of a biotinylated peptide. The phosphorylated peptide was detected by homogenous time resolved fluorescence (HTRF). IC50s of compounds were measured for each kinase in the 40 μL reactions that contain the enzyme, ATP and 500 nM peptide in 50 mM Tris (pH 7.8) buffer with 100 mM NaCl, 5 mM DTT, and 0.1 mg/mL (0.01%) BSA. For the 1 mM IC50 measurements, ATP concentration in the reactions was 1 mM. Reactions were carried out at room temperature for 1 hour and then stopped with 20 μL 45 mM EDTA, 300 nM SA-APC, 6 nM Eu-Py20 in assay buffer (Perkin Elmer, Boston, Mass.). Binding to the Europium labeled antibody took place for 40 minutes and HTRF signal was measured on a PHERA star plate reader (BMG, Cary, N.C.). The Example compounds were each tested in the Example A assay (see Table 1 for data for the compounds of the examples as tested by the assay of Example A at 1 mM ATP).
row,Structure (SMILES),JAK2/JAK1
1,CCc1nc2cnc3ccsc3c2n1[C@@H]1CC[C@@H](CC#N)[C@@H](O)C1 (mixture of isomers) [Example 35],>10
2,"C[C@@H](O)c1nc2cnc3ccsc3c2n1C1CCC(O)(CC#N)CC1 (single isomer, unassigned) [24 (first peak)]",>10
3,"C[C@@H](O)c1nc2cnc3ccsc3c2n1C1CCC(NCCC#N)CC1 (single isomer, unassigned) [30 (first peak)]",>2
4,"C[C@@H](O)c1nc2cnc3ccsc3c2n1C1CCC(NCCC#N)CC1 (single isomer, unassigned) [30 (second peak)]",>10
5,"N#CCC1CCC(CO)(n2cnc3cnc4ccsc4c32)CC1 (single isomer, unassigned) [72 (second peak), [4-(Hydroxymethyl)-4-(1H-imidazo[4,5-d]thieno[3,2-b]pyridin-1-yl)cyclohexyl]acetonitrile]",>5
6,"C[C@@H](O)c1nc2cnc3ccsc3c2n1[C@H]1CCCOC1 [Example 1, (1R)-1-{1-[(3S)-Tetrahydro-2H-pyran-3-yl]-1H-imidazo[4,5-d]thieno[3,2-b]pyridin-2-yl}ethanol]",>3
7,"C[C@@H](O)c1nc2cnc3ccsc3c2n1[C@H]1CC[C@H](CC#N)CC1 [Example 2, (trans-4-{2-[(1R)-1-Hydroxyethyl]-1H-imidazo[4,5-d]thieno[3,2-b]pyridin-1-yl}cyclohexyl)acetonitrile]",>10
8,"C[C@@H](O)c1nc2cnc3ccsc3c2n1[C@H]1CC[C@H](O)CC1 [Example 3, trans-4-{2-[(1R)-1-Hydroxyethyl]-1H-imidazo[4,5-d]thieno[3,2-b]pyridin-1-yl}cyclohexanol]",>10
9,"C[C@@H](O)c1nc2cnc3ccsc3c2n1[C@H]1CC[C@H](NCC(F)(F)F)CC1 [Example 4, (1R)-1-(1-{trans-4-[(2,2,2-Trifluoroethyl)amino]cyclohexyl}-1H-imidazo[4,5-d]thieno[3,2-b]pyridin-2-yl)ethanol]",>10
10,"C[C@@H](O)c1nc2cnc3ccsc3c2n1[C@H]1CC[C@H](CCS(C)(=O)=O)CC1 [Example 5, (1R)-1-(1-{trans-4-[2-(Methylsulfonyl)ethyl]cyclohexyl}-1H-imidazo[4,5-d]thieno[3,2-b]pyridin-2-yl)ethanol]",>10
11,"C[C@@H](O)c1nc2cnc3ccsc3c2n1[C@H]1CC[C@@H](n2cncn2)CC1 [Example 6, (1R)-1-{1-[cis-4-(1H-1,2,4-Triazol-1-yl)cyclohexyl]-1H-imidazo[4,5-d]thieno[3,2-b]pyridin-2-yl}ethanol]",>6
12,"C[C@@H](O)c1nc2cnc3ccsc3c2n1[C@H]1CC[C@@H](C#N)CC1 [Example 7, cis-4-{2-[(1R)-1-Hydroxyethyl]-1H-imidazo[4,5-d]thieno[3,2-b]pyridin-1-yl}cyclohexanecarbonitrile]",>10
13,"C[C@@H](O)c1nc2cnc3ccsc3c2n1[C@H]1CC[C@H](CCC#N)CC1 [Example 8, 3-(trans-4-{2-[(1R)-1-Hydroxyethyl]-1H-imidazo[4,5-d]thieno[3,2-b]pyridin-1-yl}cyclohexyl)propanenitrile]",>10
14,"C[C@@H](O)c1nc2cnc3ccsc3c2n1[C@H]1CC[C@H](CC#N)CC1.Cl [Example 10, (trans-4-{2-[(1R)-1-Hydroxyethyl]-1H-imidazo[4,5-d]thieno[3,2-b]pyridin-1-yl}cyclohexyl)acetonitrile HCl salt]",>10
15,"C[C@@H](O)c1nc2cnc3ccsc3c2n1[C@H]1CC[C@H](CO)CC1 [Example 11, (1R)-1-{1-[trans-4-(Hydroxymethyl)cyclohexyl]-1H-imidazo[4,5-d]thieno[3,2-b]pyridin-2-yl}ethanol]",>10
16,"C[C@@H](O)c1nc2cnc3ccsc3c2n1[C@H]1CC[C@H](CC#N)OC1 [Example 20, ((2R,5S)-5-{2-[(1R)-1-Hydroxyethyl]-1H-imidazo[4,5-d]thieno[3,2-b]pyridin-1-yl}tetrahydro-2H-pyran-2-yl)acetonitrile]",>10
17,"C[C@@H](O)c1nc2cnc3ccsc3c2n1[C@H]1CC[C@@H](CC#N)OC1 [Example 21, ((2S,5S)-5-{2-[(1R)-1-Hydroxyethyl]-1H-imidazo[4,5-d]thieno[3,2-b]pyridin-1-yl}tetrahydro-2H-pyran-2-yl)acetonitrile]",>10

# Results, then the compound that gave them:
row,JAK2/JAK1,Structure (SMILES)
1,>10,"C[C@@H](O)c1nc2cnc3ccsc3c2n1[C@H]1CC[C@H](CF)CC1 [Example 12, (1R)-1-{1-[trans-4-(Fluoromethyl)cyclohexyl]-1H-imidazo[4,5-d]thieno[3,2-b]pyridin-2-yl}ethanol]"
2,>10,"C[C@@H](O)c1nc2cnc3ccsc3c2n1C1CCCCC1 [Example 13, (1R)-1-(1-Cyclohexyl-1H-imidazo[4,5-d]thieno[3,2-b]pyridin-2-yl)ethanol]"
3,>5,"CNS(=O)(=O)C[C@H]1CC[C@H](n2c([C@@H](C)O)nc3cnc4ccsc4c32)CC1 [Example 14, 1-(trans-4-{2-[(1R)-1-hydroxyethyl]-1H-imidazo[4,5-d]thieno[3,2-b]pyridin-1-yl}cyclohexyl)-N-methylmethanesulfonamide]"
4,>9,"C[C@@H](O)c1nc2cnc3ccsc3c2n1C1CCN(CC(F)(F)F)CC1 [Example 15, (1R)-1-{1-[1-(2,2,2-Trifluoroethyl)piperidin-4-yl]-1H-imidazo[4,5-d]thieno[3,2-b]pyridin-2-yl}ethanol]"
5,>10,"C[C@@H](O)c1nc2cnc3ccsc3c2n1C1CCN(CCC#N)CC1 [Example 16, 3-(4-{2-[(1R)-1-Hydroxyethyl]-1H-imidazo[4,5-d]thieno[3,2-b]pyridin-1-yl}piperidin-1-yl)propanenitrile]"
6,>10,"N#CC[C@H]1CC[C@H](n2c(CO)nc3cnc4ccsc4c32)CC1 [Example 17, {trans-4-[2-(Hydroxymethyl)-1H-imidazo[4,5-d]thieno[3,2-b]pyridin-1-yl]cyclohexyl}acetonitrile]"
7,>10,"CS(=O)(=O)NCc1nc2cnc3ccsc3c2n1[C@H]1CC[C@H](CC#N)CC1 [Example 18, N-({1-[trans-4-(Cyanomethyl)cyclohexyl]-1H-imidazo[4,5-d]thieno[3,2-b]pyridin-2-yl}methyl)methanesulfonamide]"
8,>10,"C[C@@H](O)c1nc2cnc3ccsc3c2n1[C@H]1CCC(CO)OC1 (stereo partly drawn) [Example 19, (1R)-1-{1-[(3S)-6-(Hydroxymethyl)tetrahydro-2H-pyran-3-yl]-1H-imidazo[4,5-d]thieno[3,2-b]pyridin-2-yl}ethanol]"
9,>4,"CS(=O)(=O)NCc1nc2cnc3ccsc3c2n1[C@H]1CC2CCC1C2 (stereo partly drawn) [Example 22, N-((1-((2S)-Bicyclo[2.2.1]heptan-2-yl)-1H-imidazo[4,5-d]thieno[3,2-b]pyridin-2-yl)methyl)methanesulfonamide]"
10,>6,"N#CC[C@H]1CC[C@H](n2/c(=N/C#N)[nH]c3cnc4ccsc4c32)CC1.O=C(O)C(F)(F)F [Example 25, {(2E)-1-[trans-4-(Cyanomethyl)cyclohexyl]-1,3-dihydro-2H-imidazo[4,5-d]thieno[3,2-b]pyridin-2-ylidene}cyanamide trifluoroacetate]"
11,>10,"N#CC[C@H]1CC[C@H](n2c(C3CC3)nc3cnc4ccsc4c32)CC1 [Example 26, [trans-4-(2-Cyclopropyl-1H-imidazo[4,5-d]thieno[3,2-b]pyridin-1-yl)cyclohexyl]acetonitrile]"
12,>10,"CC(C)c1nc2cnc3ccsc3c2n1[C@H]1CC[C@H](CC#N)CC1 [Example 27, [trans-4-(2-Isopropyl-1H-imidazo[4,5-d]thieno[3,2-b]pyridin-1-yl)cyclohexyl]acetonitrile]"
13,>7,"N#CC[C@H]1CC[C@H](n2c(C3CNC3)nc3cnc4ccsc4c32)CC1 [Example 28, [trans-4-(2-Azetidin-3-yl-1H-imidazo[4,5-d]thieno[3,2-b]pyridin-1-yl)cyclohexyl]acetonitrile]"
14,>9,"CN1CC(c2nc3cnc4ccsc4c3n2[C@H]2CC[C@H](CC#N)CC2)C1 [Example 29, {trans-4-[2-(1-Methylazetidin-3-yl)-1H-imidazo[4,5-d]thieno[3,2-b]pyridin-1-yl]cyclohexyl}acetonitrile]"
15,>10,"C[C@@H](O)c1nc2cnc3ccsc3c2n1C1CCCC(CCC#N)C1 (stereo partly drawn) [Example 32, 3-(3-{2-[(1R)-1-Hydroxyethyl]-1H-imidazo[4,5-d]thieno[3,2-b]pyridin-1-yl}cyclohexyl)propanenitrile]"
16,>7,"Cc1nc2cnc3ccsc3n2c1-c1ccc(CC#N)cc1 [Example 33, [4-(7-Methylimidazo[1,2-a]thieno[3,2-e]pyrazin-8-yl)phenyl]acetonitrile]"
17,>10,"Cc1nc2cnc3ccsc3c2n1[C@H]1CC[C@H](CC#N)OC1 [Example 38, [(2R,5S)-5-(2-Methyl-1H-imidazo[4,5-d]thieno[3,2-b]pyridin-1-yl)tetrahydro-2H-pyran-2-yl]acetonitrile]"
18,>10,"CCc1nc2cnc3ccsc3c2n1[C@H]1CC[C@H](CC#N)OC1 [Example 39, [(2R,5S)-5-(2-Ethyl-1H-imidazo[4,5-d]thieno[3,2-b]pyridin-1-yl)tetrahydro-2H-pyran-2-yl]acetonitrile]"

# From patent US9908895B2, “Tricyclic fused thiophene derivatives as JAK inhibitors” (Incyte Corporation, priority 2012, dated 2018)
